Key:
[1] = molecular target: T1, wild-type mouse Pgp (MDR3) (Mus musculus, UniProt P21447); assay: biochemical
Experimental: (§1) Overexpression of wild-type mouse Pgp (MDR3) was achieved by using genetically engineered strains of Pichia pastoris with a 6X histidine tag. The cells were cultured in glycerol media, and methanol was used to induce the overexpression of Pgp at the Bioexpression and Fermentation Facility (BFF), University of Georgia, Athens, GA, USA. A repeated cycle of freezing using liquid nitrogen, blending, and thawing was used to lyse the Pgp-expressing P. pastoris cells. The protein was purified using affinity chromatography with nickel-nitrilotriacetic acid (Ni-NTA) resin (Thermo Fisher Scientific, Waltham, MA, USA). DDM was used to solubilize the protein, and the solution was concentrated using Amicon Ultra-15 100 kDa cut-off filters (EMD Millipore, Billerica, MA, USA). The concentration of purified protein was measured at 280 nm using a calculated extinction coefficient of 1.28 per mg mL^−1 on a Nanodrop (DeNovix, Wilmington, DE, USA). […] The purified DDM-solubilized Pgp was aliquoted and stored at −80 °C for future analysis.
(§2) Approximately 40 µL of DDM-solubilized Pgp was dialyzed for two hours against HEPES buffer (20 mM HEPES, 100 mM NaCl, 5 mM MgCl2, 2 mM DTT, pH 7.4) to remove any remnants of the detergent, DDM. The dialyzed protein was mixed with 4 mg mL^−1 of the extruded liposomes and incubated on ice for at least one hour to allow Pgp to integrate into the liposomes. To remove any additional detergent and further facilitate Pgp integration into the liposome, the solution was dialyzed for a second time for two hours in HEPES buffer to form proteoliposomes, and the concentration of Pgp reconstituted in liposomes was determined using the Bio-Rad DC Protein assay. Finally, the solution was aliquoted and stored at −80 °C for future use.
The intrinsic tryptophan residues in the protein can be selectively excited and emitted at 295 nm and 330 nm wavelengths, respectively. The binding of the drug to the protein can alter the spatial arrangement encountered by the tryptophan residue(s) and thereby regulate the fluorescence intensity of the protein [52]. […] Proteoliposomes diluted to 1 µM in Chifflet buffer containing 2 mM DTT were titrated against varying concentrations of drugs. The intrinsic protein fluorescence was measured at 330 nm upon excitation at 295 nm using an Olis DM 45 spectrophotometer (Olis Corporation, Bogart, GA, USA). To nullify the effect of Rayleigh bands on the observed spectra, a 10 nm band-pass filter was inserted on the excitation and emission paths of the spectrophotometer. The drug-induced quenching of intrinsic Pgp fluorescence was corrected (Fcorrected) for factors such as dilution, background fluorescence, and inner filter effects using the equation mentioned below (Equation (2)).(2) Fcorrected=F−B10^εexbex+εembemQ/2 where Fcorrected = Drug-induced quenching of intrinsic Pgp fluorescence; F = Emitted intrinsic Pgp fluorescence at 330 nm; [Q] = Concentration of drug; εex and εem = Excitation and emission extinction coefficients, respectively; bex and bem = Path lengths of excitation (0.4 mm) and emission (10 mm) wavelengths, respectively; and B = Background fluorescence measured from drug and solvent.
The resulting quenching curves were fit using a modified Stern-Volmer equation (Equation (3)), as follows:(3) Fcorrected=FOcorrected/1+KsvQ+Funquenched where Fcorrected = The corrected fluorescence; F0(corrected) = Fluorescence recorded in the absence of drug; [Q] = Concentration of drug; Ksv = Stern–Volmer constant; and F(unquenched) = unquenched fluorescence.

[2] = molecular target: T1, wild-type mouse Pgp (MDR3)
Experimental: as §1, §2
Acrylamide, an aqueous collisional quencher, can be used to determine the changes in conformation upon Pgp-drug interaction. The principle of this technique is that as the drug interacts with the protein, the conformation of the accessible tryptophan residues in the protein also changes, resulting in a shift in fluorescence intensity. For this experiment, to measure the fluorescence of Pgp reconstituted in liposomes, in the presence (250 µM) or absence of drug(s), the excitation and emission wavelengths used were 295 nm and 330 nm, respectively. The proteoliposomes were diluted to a final concentration of 1 µM in Chifflet buffer (pH 7.4) containing 2 mM DTT, and it was titrated against an increasing concentration of acrylamide. A concentration of 11 µM N-acetyl-L-tryptophanamide (NATA), an analog of tryptophan, was used as a positive control to determine non-specific quenching. A saturated concentration of AMPPNP (3.2 mM), a non-hydrolysable form of ATP, was used to generate an outward-open conformation of Pgp. All the experiments for acrylamide quenching were performed at 21 °C. To correct the fluorescence intensities for background, dilution, and inner filter effects, […] was used. A Stern–Volmer plot was constructed with F0(corrected)/F(corrected) versus acrylamide concentration. The slope of the curve determined the degree of quenching, and it was related to the Stern–Volmer constant (Ksv) by Equation (4), as follows:(4) Focorrected/Fcorrected=1+KsvQ where F0(corrected)/F(corrected) = Stern–Volmer plot; Ksv = Stern–Volmer constant; and [Q] = acrylamide concentration.

[3] = molecular target: T1, wild-type mouse Pgp (MDR3); conditions: mouse, not told, pH 7.4
From the text: The STDD NMR technique is a robust method used to characterize the interaction between a drug and receptor protein [36, 86]. This technique utilizes a saturated low-strength radio frequency (RF) to selectively excite the receptor protein. […] Due to the localization of Pgp, most of its substrates are lipophilic, resulting in a probable non-specific interaction between its substrates and liposomes in the observed STD NMR spectrum. Therefore, STD NMR of liposomes in the presence of drugs was performed. The resulting spectrum was subtracted from the ^1H STD NMR spectrum obtained from the drug in the presence of proteoliposome (Pgp reconstituted into liposome) to achieve a saturation transfer double-difference (STDD) NMR spectrum, which nullified the STD observations of the drugs in the presence of liposomes.
This technique was performed as previously described. […] The NMR tubes with the sample were centrifuged at 3000× g for 5 min. To suppress the background signals caused by water, a tailored gradient pulse sequence known as water suppression by gradient-tailored excitation (WATERGATE) was also included. A train of 50 ms Gaussian-shaped selective pulses was used to selectively excite and saturate Pgp for two seconds, and a relaxation delay of five seconds was also used. The STD NMR spectra for both the control and the samples were obtained through phase cycling, where the Pgp irradiation resonance was alternated between 1.5 ppm and 42 ppm on and off resonance, respectively, for 512 scans, creating the ^1H NMR spectrum.
For this experiment, the NMR studies were performed on a Bruker Avance NEO 800 MHz NMR spectrometer with a 1.7 mm TCI H{CN} probe at 25 °C. The STD NMR data generated were analyzed using iNMR software (Nucleomatic, Molfetta, Italy), Igor Pro 6.2, and Mnova 14.2.0 (Mastrelab Research S.L., Santiago de Compostela, Spain).

T1 sequence (P21447 whole entry): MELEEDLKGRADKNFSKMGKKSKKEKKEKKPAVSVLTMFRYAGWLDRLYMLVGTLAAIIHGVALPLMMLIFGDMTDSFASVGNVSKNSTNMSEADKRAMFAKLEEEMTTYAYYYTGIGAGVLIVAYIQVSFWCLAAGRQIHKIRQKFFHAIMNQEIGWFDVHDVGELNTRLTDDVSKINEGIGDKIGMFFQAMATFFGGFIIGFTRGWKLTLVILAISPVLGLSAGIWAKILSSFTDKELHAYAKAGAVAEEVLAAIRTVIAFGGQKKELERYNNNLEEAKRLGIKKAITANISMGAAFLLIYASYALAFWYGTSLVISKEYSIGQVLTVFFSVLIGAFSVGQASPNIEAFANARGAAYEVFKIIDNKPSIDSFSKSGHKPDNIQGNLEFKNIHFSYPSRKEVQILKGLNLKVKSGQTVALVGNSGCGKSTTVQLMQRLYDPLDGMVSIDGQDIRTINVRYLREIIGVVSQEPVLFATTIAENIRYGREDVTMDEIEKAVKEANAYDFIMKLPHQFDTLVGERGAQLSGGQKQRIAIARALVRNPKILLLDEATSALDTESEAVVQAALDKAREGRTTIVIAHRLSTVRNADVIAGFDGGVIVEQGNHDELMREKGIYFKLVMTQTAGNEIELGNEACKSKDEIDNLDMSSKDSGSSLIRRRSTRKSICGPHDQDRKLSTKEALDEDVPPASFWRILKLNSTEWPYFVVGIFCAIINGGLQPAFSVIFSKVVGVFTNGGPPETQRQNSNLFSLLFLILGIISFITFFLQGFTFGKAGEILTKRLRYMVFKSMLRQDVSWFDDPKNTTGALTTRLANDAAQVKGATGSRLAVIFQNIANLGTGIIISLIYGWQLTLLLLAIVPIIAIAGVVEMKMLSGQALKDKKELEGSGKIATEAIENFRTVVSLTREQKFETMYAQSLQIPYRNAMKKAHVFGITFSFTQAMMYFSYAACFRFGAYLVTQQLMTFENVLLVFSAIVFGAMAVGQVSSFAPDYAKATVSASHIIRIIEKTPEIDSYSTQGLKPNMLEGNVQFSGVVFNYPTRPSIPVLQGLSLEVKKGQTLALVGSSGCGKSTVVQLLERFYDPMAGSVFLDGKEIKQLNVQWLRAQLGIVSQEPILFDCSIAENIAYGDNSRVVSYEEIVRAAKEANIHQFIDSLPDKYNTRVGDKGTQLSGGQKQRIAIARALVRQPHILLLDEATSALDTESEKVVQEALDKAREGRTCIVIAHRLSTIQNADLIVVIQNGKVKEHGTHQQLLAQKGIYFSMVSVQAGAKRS

Row | Structure (SMILES) | Kd [1] [µM] | Pgp conformation upon drug binding in the absence of a nucleotide [2] | Interaction (Region/Group) Pgp (STDD-NMR Data) [3] | Ksv of Pgp (acrylamide quenching) in the presence of AMPPNP alone [2] [M⁻¹]
1 | C[C@H]1O[C@@H](O[C@H]2[C@@H](O)C[C@H](O[C@H]3[C@@H](O)C[C@H](O[C@H]4CC[C@@]5(C)[C@H](CC[C@@H]6[C@@H]5CC[C@]5(C)[C@@H](C7=CC(=O)OC7)CC[C@]65O)C4)O[C@@H]3C)O[C@@H]2C)C[C@H](O)[C@@H]1O [Digitoxin] | 16.7 ± 4.44 | intermediate | Protons on C3,C17, C18, C19 of steroid; C22 of lactone; C3,C5,C6 of sugar | –
2 | Nc1ncnc2c1ncn2[C@@H]1O[C@H](COP(=O)([O-])OP(=O)([O-])NP(=O)([O-])[O-])[C@@H](O)[C@H]1O.[Li+].[Li+].[Li+].[Li+] [AMPPNP, Adenosine 5′-(β,γ-imido) triphosphate lithium salt] | – | – | – | 1.6 ± 0.01

Source: PMC12386283, “Elucidating the Complex Structural and Molecular Mechanisms Driving P-Glycoprotein-Mediated Transport of Cardiac Glycosides” (International Journal of Molecular Sciences, 2025)
